Laboratory results published in US4792547A, “Pyrazine-2-carboxamide derivatives useful in treating allergic disease” (priority 1985, dated 1988).
Where a name gives a salt, the structure may show the parent alone.

Test system: mast cells
Test: Inhibitory effect on histamine release from sensitized rat peritoneal mast cells (DNP-As antigen challenge)
Assay type: cell-based, Wistar rats
Conditions: Mast cell; rat peritoneal cells passively sensitized with anti-DNP-As rat serum; compound 1 min before DNP-As; 37° C.
Method: The inhibitory effect of histamine release was examined with the under method, while using disodium cromoglycate(II), tranilast (III), and TA-5707F(IV)as reference drugs. Mixed peritoneal cells obtained from male Wistar rats weighing 350-400 g were sensitized by incubating for 2 hr at 37° C. with anti-DNP-As rat serum (produced according to the method of Tada and Okumura [Tada, T. and Okmura, K.: J. Immunology, 106,1002 (1971)]. The cell suspension containing about 1×10^5 mast cells/ml was prepared in Hepes Tyrode buffer containing heparin (10 unit/ml ) and BSA (0.3%). This suspension was divided into 0.8 ml aliquots in separate polyethylene tubes. […] After incubation at 37° C. for 1 min, 0.1 ml of DNP-As solution (50μg/ml) were added, followed by incubation at 37° C. for 2 min. The reactio was terminated by adding 2 ml of the cold buffer. The supernatants were separated by centrifugation, the cell pellets were resuspended in 3 ml buffer and placed for 3 min in the heating block (100° C.) to release the residual histamine into cells. The histamine was quantitated using the spedrofluorometric technique of modified Shore's method. The IC 50 was obtained from the dose-response curve.

Row | SMILES | IC50 [nM]
1 | CNc1cncc(C(=O)Nc2nnn[nH]2)n1 [Example 2, 6-(Methylamino)-N-(1H-5-tetrazolyl)pyrazine-2-carboxamide] | 2.5
2 | CCNc1cncc(C(=O)Nc2nnn[nH]2)n1 [Example 3, 6-(Ethylamino)-N-(1H-5-tetrazolyl)pyrazine-2-carboxamide] | 2
3 | CCCNc1cncc(C(=O)Nc2nnn[nH]2)n1 [Example 4, 6-(n-Propylamino)-N-(1H-5-tetrazolyl)pyrazine-2-carboxamide] | 17
4 | CC(C)Nc1cncc(C(=O)Nc2nnn[nH]2)n1 [Example 5, 6-(Isopropylamino)-N-(1H-5-tetrazolyl)pyrazine-2-carboxamide] | 5
5 | CN(C)c1cncc(C(=O)Nc2nnn[nH]2)n1 [Example 6, 6-(Dimethylamino)-N-(1H-5-tetrazolyl)pyrazine-2-carboxamide] | 0.47
6 | CCN(CC)c1cncc(C(=O)Nc2nnn[nH]2)n1 [Example 7, 6-(Diethylamino)-N-(1H-5-tetrazolyl)pyrazine-2-carboxamide] | 15
7 | O=C(Nc1nnn[nH]1)c1cncc(N2CCCC2)n1 [Example 8 (free), 6-(1-Pyrrolidinyl)-N-(1H-5-tetrazolyl)pyrazine-2-carboxamide] | 1.2
8 | O=C(Nc1nnn[nH]1)c1cncc(N2CCCCC2)n1 [Example 9, 6-(1-Piperidinyl)-N-(1H-5-tetrazolyl)pyrazine-2-carboxamide] | 5.6
9 | O=C(Nc1nnn[nH]1)c1cncc(N2CCOCC2)n1 [Example 14, 6-(4-Morpholinyl)-N-(1H-5-tetrazolyl)pyrazine-2-carboxamide] | 36
10 | CN1CCN(c2cncc(C(=O)Nc3nnn[nH]3)n2)CC1 [Example 15, 6-(4-Methyl-1-piperazinyl)-N-(1H-5-tetrazolyl)pyrazine-2-carboxamide hydrochloride hydrate] | 36
11 | O=C(Nc1nnn[nH]1)c1cncc(Nc2ccccc2)n1 [Example 16, 6-(Phenylamino)-N-(1H-5-tetrazolyl)pyrazine-2-carboxamide] | 0.062
12 | Cc1cccc(C(=O)Nc2nnn[nH]2)n1 [TA-5707F (IV), 6-methyl-N-(1H-5-tetrazolyl) pyridine-2-carboxamide, reference compound] | 46
13 | O=C(O)c1cc(=O)c2c(OCC(O)COc3cccc4oc(C(=O)O)cc(=O)c34)cccc2o1 [disodium cromoglycate (II), disodium cromoglycate, reference compound] | 190
14 | COc1ccc(/C=C/C(=O)Nc2ccccc2C(=O)O)cc1OC [tranilast (III), tranilast, reference compound] | 24000

Test system: not listed separately
Test: Acute toxicity test (oral)
Conditions: mouse, in vivo, po
Method: Male ICR mice 5 weeks old were used as 5 animals at a group. The compounds were administered orally at each dosage.

Row | SMILES | LD50 [mg/kg]
15 | O=C(Nc1nnn[nH]1)c1cncc(N2CCCC2)n1.[Na] | > 2000

Same assay, conditions: mouse, in vivo; male ICR mice 5 weeks old, oral

Row | SMILES | LD50 [mg/kg]
16 | O=C(Nc1nnn[nH]1)c1cncc(N2CCCC2)n1 [Example 8 (free), 6-(1-Pyrrolidinyl)-N-(1H-5-tetrazolyl)pyrazine-2-carboxamide] | > 2000

Test system: not given
Test: not given
Conditions: daily dosage about 300 mg, oral; cited from earlier work

Row | SMILES | side effects in the digestive system
17 | COc1ccc(/C=C/C(=O)Nc2ccccc2C(=O)O)cc1OC [tranilast (III), tranilast, reference compound] | nausea, abdominal pain, and gastric discomfort

Same assay, conditions: human, in vivo; cited from earlier work

Row | SMILES | physical discomfort in the throat
18 | O=C(O)c1cc(=O)c2c(OCC(O)COc3cccc4oc(C(=O)O)cc(=O)c34)cccc2o1 [disodium cromoglycate (II), disodium cromoglycate, reference compound] | feeling of physical discomfort in the throat
